IC50 data for 19 molecules are collected here from US11078197B2, “5-membered and bicyclic heterocyclic amides as inhibitors of rock” (BRISTOL-MYERS SQUIBB COMPANY, priority 2017, dated 2021).

Broadly, the IC50 is the midpoint of a concentration-inhibition curve. A high value points to weaker potency in that assay.

This test addresses ROCK2 (Homo sapiens (Human), UniProt O75116). Briefly: ROCK2 assay (peptide phosphorylation, LABCHIP 3000 Reader). In kind it is biochemical. Conditions: 5 μM ATP, 1.5 μM peptide substrate, dose-response. As to the method:
After incubation, the reaction was terminated by the addition of EDTA and the phosphorylated and non-phosphorylated peptides separated using a LABCHIP®3000 Reader (Caliper Life Sciences). […] Compounds were tested in dose-response format, and the inhibition of kinase activity was calculated at each concentration of compound. […] Representative Examples were tested in the ROCK2 assay described above and found having ROCK2 inhibitory activity.

Sequence of ROCK2 (O75116 whole entry, species assumed): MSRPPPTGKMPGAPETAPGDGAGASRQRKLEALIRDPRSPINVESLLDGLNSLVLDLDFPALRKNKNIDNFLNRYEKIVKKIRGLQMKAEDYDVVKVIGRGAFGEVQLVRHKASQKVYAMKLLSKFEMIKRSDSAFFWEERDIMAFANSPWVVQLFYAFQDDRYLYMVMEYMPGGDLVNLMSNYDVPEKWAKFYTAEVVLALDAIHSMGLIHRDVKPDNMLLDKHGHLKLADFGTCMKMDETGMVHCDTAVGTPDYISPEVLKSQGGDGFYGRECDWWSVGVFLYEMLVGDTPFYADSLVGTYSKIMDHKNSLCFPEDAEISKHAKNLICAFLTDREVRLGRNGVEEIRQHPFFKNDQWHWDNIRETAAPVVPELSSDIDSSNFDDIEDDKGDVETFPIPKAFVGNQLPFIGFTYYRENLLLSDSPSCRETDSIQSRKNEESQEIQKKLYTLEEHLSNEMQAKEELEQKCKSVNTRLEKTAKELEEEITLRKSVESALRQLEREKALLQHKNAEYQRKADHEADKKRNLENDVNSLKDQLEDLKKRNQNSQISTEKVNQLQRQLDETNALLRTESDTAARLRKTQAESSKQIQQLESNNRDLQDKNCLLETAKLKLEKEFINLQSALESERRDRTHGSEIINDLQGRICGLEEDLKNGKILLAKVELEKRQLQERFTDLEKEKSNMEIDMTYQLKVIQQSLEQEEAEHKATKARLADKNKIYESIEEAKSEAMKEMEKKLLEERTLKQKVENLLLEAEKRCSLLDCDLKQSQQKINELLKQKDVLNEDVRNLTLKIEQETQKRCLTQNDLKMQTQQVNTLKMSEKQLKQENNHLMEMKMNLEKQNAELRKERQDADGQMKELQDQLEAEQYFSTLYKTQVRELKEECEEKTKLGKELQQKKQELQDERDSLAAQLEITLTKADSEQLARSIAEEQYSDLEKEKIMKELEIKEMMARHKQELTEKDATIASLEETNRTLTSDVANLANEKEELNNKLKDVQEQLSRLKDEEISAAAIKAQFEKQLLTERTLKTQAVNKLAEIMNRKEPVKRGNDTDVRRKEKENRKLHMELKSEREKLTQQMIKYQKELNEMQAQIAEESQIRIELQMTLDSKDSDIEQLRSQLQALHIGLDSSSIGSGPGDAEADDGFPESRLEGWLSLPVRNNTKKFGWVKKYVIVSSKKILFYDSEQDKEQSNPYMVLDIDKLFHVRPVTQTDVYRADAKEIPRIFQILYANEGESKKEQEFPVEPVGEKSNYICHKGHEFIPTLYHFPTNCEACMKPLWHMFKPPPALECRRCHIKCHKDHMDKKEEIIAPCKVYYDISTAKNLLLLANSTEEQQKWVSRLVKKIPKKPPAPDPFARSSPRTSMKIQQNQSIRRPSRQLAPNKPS

In the case of `NC(=O)c1c(O[C@H]2C[C@@]3(C[C@H](NC(=O)c4cnn5cc(OCC(O)(C(F)(F)F)C(F)(F)F)ccc45)C3)C2)nn2ccccc12` (stereo partly shown) [Example 123, 2-{[(4s)-6-{6-[3,3,3-trifluoro-2-hydroxy-2-(trifluoromethyl)propoxy]pyrazolo[1,5-a]pyridine-3-amido}spiro[3.3]heptan-2-yl]oxy}pyrazolo[1,5-a]pyridine-3-carboxamide], 241 nM corresponded to half-maximal inhibition (IC50).
With `CC(C)CNc1nnc(C(=O)N[C@H]2C[C@]3(C2)C[C@H](Oc2nc4c(cc2C(N)=O)COCC4)C3)s1` (stereo partly shown) [Example 142, 5-[(2-methylpropyl)amino]-N-[(4s)-6-({3-carbamoyl-5H,7H,8H-pyrano[4,3-b]pyridin-2-yl}oxy)spiro[3.3]heptan-2-yl]-1,3,4-thiadiazole-2-carboxamide] the figure was 60.3 nM; with `NC(=O)c1cn(C(F)F)nc1O[C@H]1C[C@@]2(C[C@H](NC(=O)c3cnn4cc(OCC(O)(C(F)(F)F)C(F)(F)F)ccc34)C2)C1` (stereo partly drawn) [Example 52, 1-(difluoromethyl)-3-{[(aR)-6-{6-[3,3,3-trifluoro-2-hydxoxy-2-(trifluoromethyl)propoxy]pyrazolo [1,5-a]pyridine-3-amido}spiro[3.3]heptan-2-yl]oxy}-1H-pyrazole-4-carboxamide], 33.9 nM; with `Cc1sc2cc(C(N)=O)c(O[C@H]3C[C@@]4(C[C@H](NC(=O)c5cnn6cc(OCC(C)(C)O)ccc56)C4)C3)nc2c1C` (stereo partly drawn) [Example 94, 2,3-dimethyl-5-{[(aR)-6-[6-(2-hydroxy-2-methylpropoxy)pyrazolo[1,5-a]pyridine-3-amido]spiro[3.3]heptan-2-yl]oxy}thieno[3,2-b]pyridine-6-carboxamide], 39 nM.
For `[H][C@]1(Oc2nn3ccccc3c2C(N)=O)C[C@]2(C[C@@H](NC(=O)c3cnn4c(C5CC5)c(OCC(C)(C)O)ccc34)C2)C1` (stereo partly shown) [Example 6] the value was 25.6 nM; for `NC(=O)c1c(O[C@H]2C[C@@]3(C[C@H](NC(=O)c4cnn5cc(OCC(F)F)ccc45)C3)C2)nn2ccccc12` (stereo partly shown) [Example 122, 2-{[(4s)-6-[6-(2,2-difluoroethoxy)pyrazolo[1,5-a]pyridine-3-amido]spiro[3.3]heptan-2-yl]oxy}pyrazolo[1,5-a]pyridine-3-carboxamide], 117 nM; for `N#Cc1cccc(C(=O)NC2CC3(C2)CC(Oc2nc4ccsc4cc2C(N)=O)C3)c1` (stereo not shown) [Example 79, 5-{[6-(3-cyanobenzamido)spiro[3.3]heptan-2-yl]oxy}thieno[3,2-b]pyridine-6-carboxamide], 22.2 nM.
With `Cc1nc(O[C@H]2C[C@@]3(C[C@H](NC(=O)c4nn(C(F)F)c5cc(OCC(C)(C)O)ccc45)C3)C2)c(C(N)=O)s1` (stereo partly drawn) [Example 25, N-{(aR)-6-[(5-carbamoyl-2-methyl-1,3-thiazol-4-yl)oxy]spiro[3.3]heptan-2-yl}-1-(difluoromethyl)-6-(2-hydroxy-2-methylpropoxy)-1H-indazole-3-carboxamide] the figure was 6.4 nM; with `COc1nc(O[C@H]2C[C@@]3(C[C@H](NC(=O)c4cnn(-c5ccc(Cl)cc5)c4C)C3)C2)c(C(N)=O)s1` (stereo partly shown) [Example 113, 2-methoxy-4-{[(4s)-6-[1-(4-chlorophenyl)-5-methyl-1H-pyrazole-4-amido]spiro[3.3]heptan-2-yl]oxy}-1,3-thiazole-5-carboxamide], 53.1 nM; with `CCC1NC(=O)N([C@H]2C[C@@]3(C[C@H](Oc4nc(C5CC5)sc4C(N)=O)C3)C2)C1=O` (stereo partly drawn) [Example 108, 2-cyclopropyl-4-{[(aR)-6-(4-ethyl-2,5-dioxoimidazolidin-1-yl)spiro[3.3]heptan-2-yl]oxy}-1,3-thiazole-5-carboxamide], 1870 nM.
As to `CC(C)(O)COc1ccc2c(C(=O)NC3CC4(C3)CC(Oc3nn(CC5CCNCC5)cc3C(N)=O)C4)cnn2c1C1CC1` [Example 20, 3-({(aR)-6-[7-cyclopropyl-6-(2-hydroxy-2-methylpropoxy)pyrazolo [1,5-a]pyridine-3-amido]spiro[3.3]heptan-2-yl}oxy)-1-[(piperidin-4-yl)methyl]-1H-pyrazole-4-carboxamide], the IC50 was 6.8 nM.
With `Cc1csc2cc(C(N)=O)c(O[C@H]3C[C@@]4(C[C@H](NC(=O)c5cccc(C#N)c5)C4)C3)nc12` (stereo partly drawn) [Example 98, 3-methyl-5-{[(aR)-6-(3-cyanobenzamido)spiro[3.3]heptan-2-yl]oxy}thieno[3,2-b]pyridine-6-carboxamide] the figure was 25.7 nM.
For `Cc1nc(NCC(C)(C)O)sc1C(=O)N[C@H]1C[C@]2(C1)C[C@H](Oc1nc3c(cc1C(N)=O)COCC3)C2` (stereo partly shown) [Example 144, 2-[(2-hydroxy-2-methylpropyl)amino]-4-methyl-N-[(4s)-6-({3-carbamoyl-5H,7H,8H-pyrano[4,3-b]pyridin-2-yl}oxy)spiro[3.3]heptan-2-yl]-1,3-thiazole-5-carboxamide] the value was 367 nM.
`COc1nc(O[C@H]2C[C@@]3(C[C@H](NC(=O)c4cnn(-c5ccc(C(F)(F)F)cn5)c4C)C3)C2)c(C(N)=O)s1` (stereo partly shown) [Example 114, 2-methoxy-4-{[(4s)-6-{5-methyl-1-[5-(trifluoromethyl)pyridin-2-yl]-1H-pyrazole-4-amido}spiro[3.3]heptan-2-yl]oxy}-1,3-thiazole-5-carboxamide] displayed an IC50 of 115 nM.
With `NC(=O)c1cn(C2CC2)nc1O[C@H]1C[C@@]2(C[C@H](NC(=O)c3cnn4cc(OCC(F)F)ccc34)C2)C1` (stereo partly drawn) [Example 57, 1-cyclopropyl-3-{[(aR)-6-[6-(2,2-difluoroethoxy)pyrazolo[1,5-a]pyridine-3-amido]spiro[3.3]heptan-2-yl]oxy}-1H-pyrazole-4-carboxamide] the figure was 15.9 nM; with `NC(=O)c1cc2sccc2nc1O[C@H]1C[C@]2(C1)C[C@H](N1C(=O)CN(Cc3ccccc3)CC1=O)C2` (stereo partly drawn) [Example 86, 5-{[(aR)-6-(4-benzyl-2,6-dioxopiperazin-1-yl)spiro[3.3]heptan-2-yl]oxy}thieno[3,2-b]pyridine-6-carboxamide], 85.9 nM; with `Cc1c(C(N)=O)c(O[C@H]2C[C@@]3(C[C@H](NC(=O)c4cnn5c(C6CC6)c(OCC(C)(C)O)ccc45)C3)C2)nn1C` (stereo partly drawn) [Example 37, 3-({(aR)-6-[7-cyclopropyl-6-(2-hydroxy-2-methylpropoxy)pyrazolo[1,5-a]pyridine-3-amido]spiro[3.3]heptan-2-yl}oxy)-1,5-dimethyl-1H-pyrazole-4-carboxamide], 259 nM.
With `COc1ccc2c(C(N)=O)c(O[C@H]3C[C@@]4(C[C@H](NC(=O)c5nn(C(F)F)c6cc(OCC(C)(C)O)ccc56)C4)C3)nn2c1` (stereo partly shown) [Example 124, 1-(difluoromethyl)-6-(2-hydroxy-2-methylpropoxy)-N-[(4s)-6-({3-carbamoyl-6-methoxypyrazolo[1,5-a]pyridin-2-yl}oxy)spiro[3.3]heptan-2-yl]-1H-indazole-3-carboxamide] the figure was 90.4 nM.
With `Cn1ncc2cc(C(N)=O)c(O[C@H]3C[C@@]4(C[C@H](NC(=O)c5cccc(CO)n5)C4)C3)nc21` (stereo partly shown) [Example 148, 6-(hydroxymethyl)-N-[(4s)-6-({5-carbamoyl-1-methyl-1H-pyrazolo[3,4-b]pyridin-6-yl}oxy)spiro[3.3]heptan-2-yl]pyridine-2-carboxamide] the figure was 52.7 nM.
